For one compound, IC50 and Ki results are on record in article PMC4772116 (Scientific Reports, 2016).

One test has as its target human α3β2 nAChR (Homo sapiens, UniProt P17787+P32297). Briefly: cell-based. The format is cell-based.
For another test, the target named is Ac-AChBP (Aplysia californica, UniProt Q8WSF8). Briefly: biochemical. The test is classed as binding.
For another test, the target named is Ls-AChBP (Lymnaea stagnalis, UniProt P58154). Briefly: biochemical. The format is binding.
Sequence of Ls-AChBP (P58154 20-229 limits assumed): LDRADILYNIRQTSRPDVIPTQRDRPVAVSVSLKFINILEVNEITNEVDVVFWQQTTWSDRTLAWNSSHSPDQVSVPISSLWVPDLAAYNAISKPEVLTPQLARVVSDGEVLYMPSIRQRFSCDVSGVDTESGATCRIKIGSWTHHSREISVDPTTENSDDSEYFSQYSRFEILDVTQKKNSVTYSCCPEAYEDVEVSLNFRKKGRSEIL

Sequence of Ac-AChBP (Q8WSF8 20-236 limits assumed): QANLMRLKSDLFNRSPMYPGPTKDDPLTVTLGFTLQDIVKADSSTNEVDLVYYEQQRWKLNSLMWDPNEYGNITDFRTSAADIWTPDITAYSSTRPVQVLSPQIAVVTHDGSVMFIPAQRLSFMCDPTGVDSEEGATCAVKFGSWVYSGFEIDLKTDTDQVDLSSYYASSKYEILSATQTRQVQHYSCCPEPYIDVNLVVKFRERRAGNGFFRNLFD
Sequence of human α3β2 nAChR (P32297 32-505 limits assumed): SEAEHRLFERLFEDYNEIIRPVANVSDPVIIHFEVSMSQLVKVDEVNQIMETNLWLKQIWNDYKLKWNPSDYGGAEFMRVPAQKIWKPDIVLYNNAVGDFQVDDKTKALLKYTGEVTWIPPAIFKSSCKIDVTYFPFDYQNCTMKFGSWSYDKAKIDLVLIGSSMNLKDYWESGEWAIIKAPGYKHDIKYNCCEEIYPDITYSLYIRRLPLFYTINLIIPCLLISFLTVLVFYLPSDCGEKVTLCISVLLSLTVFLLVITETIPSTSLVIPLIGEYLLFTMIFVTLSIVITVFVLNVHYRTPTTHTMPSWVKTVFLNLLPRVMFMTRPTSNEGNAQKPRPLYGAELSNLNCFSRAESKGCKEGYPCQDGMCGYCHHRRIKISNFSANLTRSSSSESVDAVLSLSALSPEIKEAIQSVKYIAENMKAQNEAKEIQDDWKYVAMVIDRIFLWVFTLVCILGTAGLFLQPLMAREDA
Sequence of human α3β2 nAChR (P17787 26-502 limits assumed): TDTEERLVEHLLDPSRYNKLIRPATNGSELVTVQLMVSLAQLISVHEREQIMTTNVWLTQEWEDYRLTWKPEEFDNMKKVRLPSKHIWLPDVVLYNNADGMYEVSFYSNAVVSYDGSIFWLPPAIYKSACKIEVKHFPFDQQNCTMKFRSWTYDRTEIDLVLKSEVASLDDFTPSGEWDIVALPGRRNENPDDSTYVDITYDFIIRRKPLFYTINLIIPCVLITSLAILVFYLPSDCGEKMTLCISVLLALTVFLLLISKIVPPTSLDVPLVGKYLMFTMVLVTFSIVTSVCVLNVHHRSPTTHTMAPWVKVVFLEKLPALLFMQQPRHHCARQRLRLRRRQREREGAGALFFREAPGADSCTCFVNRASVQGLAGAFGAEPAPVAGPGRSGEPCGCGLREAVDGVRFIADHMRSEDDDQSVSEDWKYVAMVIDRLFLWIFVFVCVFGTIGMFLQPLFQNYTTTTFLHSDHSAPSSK

Usually IC50 stands for the concentration that inhibits the measured activity by half. Low values mean greater potency, high ones weaker potency. In general, Ki refers to the dissociation constant of the complex between target and ligand, obtained from inhibition or displacement. High values mean a looser hold on the target, low ones a stronger hold on the target. For the compound `CC[C@H](C)[C@@H]1NC(=O)[C@H](Cc2cnc[nH]2)NC(=O)[C@H](CCC(N)=O)NC(=O)[C@H](CC(N)=O)NC(=O)[C@H](CC(N)=O)NC(=O)CNC(=O)[C@H](C)NC(=O)[C@@H]2CSSC[C@H](NC(=O)CN)C(=O)N[C@@H](CSSC[C@@H](C(N)=O)NC1=O)C(=O)N[C@@H](CO)C(=O)N[C@@H](Cc1cnc[nH]1)C(=O)N1CCC[C@H]1C(=O)N[C@@H](C)C(=O)N2` [GIC, α-conotoxin GIC], the results for the IC50 on human α3β2 nAChR and at Ac-AChBP were 1.13 nM and 29 ± 2 nM, respectively. Moreover, the affinity on Ls-AChBP, expressed as Ki, was 220 ± 10 nM.
